Experimental data: patent US5872115A, “2-ureido-benzamide derivatives” (Grelan Pharmaceutical Co. Ltd., priority 1995, dated 1999)
pIC50: −log10 of the molar value.

How the values were obtained:
ACAT of HepG2 microsome = test: In-vitro test using Hep G2 microsome (ACAT inhibition); type: biochemical, human
Method: (1) In-vitro Test Using Hep G2 Microsome
ACAT enzyme fraction was prepared from microsome of human derived hepatoma Hep G2 cell according to Sandra's method [Journal of Lipid Research, 27, 875 (1986)].
Microsome was suspended at a concentration of 200 μg protein/20 μl in 0.1M phosphate buffer solution (pH7.4) and the suspension was preincubated at 37° C. for 5 minutes after addition of 10 μl of each test compound dissolved in 0.1M phosphate buffer solution containing bovine serum albmin (BSA). Then, the reaction was initiated by the addition of 5 nmoles of labeled [^14 C]-oleoyl-CoA dissolved in 20 μl of the said phosphate buffer solution containing BSA and the reaction was stopped by the addition of 20 μl of 2N HCl after 10 minutes. [^14 C] cholesterol-oleate formed was separated by thin-layer chromatography and the radioactivity was counted with liquid scintillation counter.
(§1) ACAT inhibitory activities of the test compounds were shown as IC50 values.

ACAT of THP-1 cells = target: T1, ACAT of THP-1 cells (Homo sapiens, UniProt P35610); test: In-vitro test using THP-1 intact cell (ACAT inhibition); type: cell-based; conditions: read-out: IC50 THP1 (intact cell)
T1 construct: differentiated into macrophage-like cells by phorbol ester; endogenous in cells; host or cells: THP-1 (human leukemia), intact cells differentiated by phorbol ester
T1 sequence (P35610 1-550): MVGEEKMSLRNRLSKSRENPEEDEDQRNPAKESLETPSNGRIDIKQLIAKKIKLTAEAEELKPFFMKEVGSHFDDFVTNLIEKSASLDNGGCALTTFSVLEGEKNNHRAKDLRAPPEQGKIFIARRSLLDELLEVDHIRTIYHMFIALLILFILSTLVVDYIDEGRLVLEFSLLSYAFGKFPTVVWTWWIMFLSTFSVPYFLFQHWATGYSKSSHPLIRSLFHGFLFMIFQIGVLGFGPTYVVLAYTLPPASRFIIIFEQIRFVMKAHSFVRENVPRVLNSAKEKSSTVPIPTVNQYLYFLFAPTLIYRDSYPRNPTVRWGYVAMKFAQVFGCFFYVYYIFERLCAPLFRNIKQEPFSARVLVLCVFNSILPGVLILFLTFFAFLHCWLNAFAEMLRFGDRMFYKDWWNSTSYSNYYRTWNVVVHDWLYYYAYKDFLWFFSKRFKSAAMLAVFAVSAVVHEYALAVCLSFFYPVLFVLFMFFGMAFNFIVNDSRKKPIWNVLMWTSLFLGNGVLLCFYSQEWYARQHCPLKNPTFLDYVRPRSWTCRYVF
Method: (2) In-vitro Test Using THP-1 Intact Cell
About 2 million cells of human leukemia cell line, THP-1 were seeded in a well with 2 ml of medium and differentiated into macrophage-like cells by phorbol ester. Then, the cells were washed with phosphate-buffered saline (PBS) solution and the medium was replaced by fresh medium supplemented with 10% of lipoprotein-deficient serum. After the addition of each test compound dissolved in dimethyl sulfoxide and 100 μg protein-containing human low density lipoprotein (LDL), the reaction was initiated by the addition of 10 nmoles of labeled [^14 C]oleic acid and 10 nmoles of oleic acid complexed with BSA in PBS solution. After 22 hours, the reaction was stopped by removal the medium and CHCl3 -MeOH (2:1) were added to the cell suspension in order to extract lipids.
Intracellular [^14 C] cholesterol-oleate formed was separated by thin-layer chromatography and the radioactivity was counted with lipid scintillation counter.
as §1

ACAT of macrophage = test: In-vivo test using mouse peritoneal macrophages (ACAT inhibition); conditions: male mice, compound in diet for 16 days
Method: (3) In-vivo Test Using Mouse Peritoneal Macrophages
Male mice were fed a standard powder diet containing the test compounds for 16 days. After 14 and 15 days on this diet, aggregated-LDL (containing 4 mg cholesterol) prepared from LDL receptor deficient KHC rabbit and [^14 C] oleic acid together with the said aggregated-LDL (containing 0.5 mg cholesterol) were injected into the peritoneal cavity of these animals, respectively. After 16 days on this treatment, peritoneal macrophages were harvested by peritoneal lavage with PBS solution and CHCl3 -MeOH (2:1) were added to the cell suspension in order to extract lipids. Formed [^14 C] cholesterol oleate was separated by thin-layer chromatography and the radioactivity was counted.
ACAT inhibitory activities of the test compounds were shown as inhibiting percentage referred to control group.

ACAT of macrophages = test: In vivo test using peritoneal macrophages in C57BL/6J mice (ACAT inhibition); design: species or system mouse; conditions: female C57BL/6J mice, 30 mg/kg/day per os for 4 days
Method: (6) In Vivo Test Using Peritoneal Macrophages in C57BL/6J Mice
A standard pellet diet fed female C57BL/6J mice were administered at 10 a.m. per os 30 mg/kg/day of oral suspension (1% CMC-Na 0.2% Tween 80) for 4 days. Thioglycollate and [^14 C] cholesterol were injected […], mice were sacrificed for the collection of peritoneal macrophages. Lipid was extracted, formed [^14 C] cholesterol-ester was separated by thin-layer chromatography and radioactivity was counted as described above in method (3).
In vivo ACAT inhibitory activities on macrophages were expressed as percentage of inhibition compared to control group.

[1] = Acute toxicity, male ICR strain mouse; type: in vivo; conditions: 1000 mg/kg orally, seven days after administration
Method: (1) Acute toxicity: Nine compounds (Example Nos. 1, 2, 5, 6, 12, 19, 28, 31 and 45) were tested by using male ICR strain mouse weighing 23.0±0.7 g.

THP-1 microsomal ACAT [2] = target: T2, THP-1 microsomal ACAT (Homo sapiens, UniProt P35610); test: In vitro test using THP-1 microsome (ACAT inhibition); type: biochemical; conditions: THP-1 microsome; read-out: IC50 THP1 microsome
T2 construct: ACAT enzyme fraction was prepared from microsome of human leukemia THP-1 cell; endogenous in cells; host or cells: THP-1 (human leukemia), microsomes
T2 sequence (P35610 1-550): T1 sequence (P35610 1-550)
Method: (4) In Vitro Test Using THP-1 Microsome
Then, the reaction was initiated by the addition of 5 nmoles of labeled [^14 C] oleoyl-CoA dissolved in 20 μl of said phosphate buffer solution containing BSA and the reaction was stopped by the addition of 20 μl of 2N HCl after 10 minutes. [^14 C] cholesterol-oleate formed was separated by thin-layer chromatography and the radioactivity was counted with liquid scintillation counter.

THP-1 microsomal ACAT [3] = target: T2, THP-1 microsomal ACAT; test: Bioavailability assessment of ACAT inhibitors by their ex vivo activity (serum of dosed mice on THP-1 microsomal ACAT); type: in vivo; conditions: female mice, 30 mg/kg per os, 1% CMC-Na 0.2% Tween 80; maximum inhibition by serum
Method: (5) Bioavailability Assessment of ACAT Inhibitors by Their <<ex vivo>> Activity
[…] Blood samples were collected 0.5, 1, 1.5, 2, 6 hour postdose. Serum were harvested after gentle centrifugation and stored at -20.
The following day, 10 μl serum were preincubated at 37 for 5 minutes with 20 μl of THP-1 microsomal ACAT and then incubated 10 minutes with 20 μl of radiolabeled oleoyl-CoA as described above in method (4). The serum is used instead of the drug solution.
ACAT inhibitory activities of the test compounds were shown as maximum inhibition percentages (Imax).

Row | SMILES | pIC50 (ACAT of HepG2 microsome) | pIC50 (ACAT of THP-1 cells) | Inhibition rate (macrophages) (ACAT of macrophage) [%] | Inhibition rate (macrophages) (ACAT of macrophages; Experiment 1) [%] | macroscopic changes on any organs at autopsy [1] | pIC50 (THP-1 microsomal ACAT [2]) | Imax Ex vivo (THP-1 microsomal ACAT [3]) [%] | Inhibition rate (macrophages) (ACAT of macrophages; Experiment 2) [%]
1 | CCCCCCCNC(=O)Nc1ccc(N(C)C)cc1C(=O)NCC1CCN(C(c2ccccc2)c2ccccc2)CC1 [Example 1, 2-(N'-n-Heptylureido)-5-dimethylamino-N-[(1-diphenylmethylpiperidin-4-yl)methyl]-benzamide] | 6.22 | 7.15 | 65 | 81.0 | no macroscopic changes were observed | – | – | –
2 | CCCCCCCNC(=O)Nc1ccccc1C(=O)NCC1CCN(C(c2ccccc2)c2ccccc2)CC1 [Example 5, 2-(N'-n-Heptylureido)-N-[(1-diphenylmethylpiperidin-4-yl)methyl]benzamide] | 5.80 | 7.15 | 64 | – | no macroscopic changes were observed | – | – | –
3 | CCCCCCCNC(=O)Nc1ccccc1C(=O)NC1CCN(C(c2ccccc2)c2ccccc2)CC1 [Example 45, 2-(N'-n-Heptylureido)-N-(1-diphenylmethylpiperidin-4-yl)benzamide] | 5.55 | 6.10 | – | – | no macroscopic changes were observed | – | – | –
4 | CCCCNC(=O)Nc1ccc(N(C)C)cc1C(=O)NCC1CCN(C(c2ccccc2)c2ccccc2)CC1 [Example 63, 2-(N'-n-Butylureido)-5-dimethylamino-N-[(1-diphenylmethylpiperidin-4-yl)-methyl]-benzamide] | – | – | – | 72.3 | – | 7.30 | 68.52 | 61.0
5 | CCCNC(=O)Nc1ccc(N(C)C)cc1C(=O)NCC1CCN(C(c2ccccc2)c2ccccc2)CC1 [Example 66, 5-Dimethylamino-2-(N'-n-propylureido)-N-[(1-diphenylmethylpiperidin-4-yl)methyl]-benzamide] | – | – | – | 73.5 | – | 7.10 | 77.59 | –
6 | CCCCNC(=O)Nc1ccc(N2CCOCC2)cc1C(=O)NCC1CCN(C(c2ccccc2)c2ccccc2)CC1 [Example 70, 2-(N'-n-Butylureido)-5-(morpholin-4-yl)-N-[(1-diphenylmethylpiperidin-4-yl)methyl]-benzamide] | – | – | – | – | – | 7.22 | – | 73.0
7 | CCCNC(=O)Nc1ccc(N2CCOCC2)cc1C(=O)NCC1CCN(C(c2ccccc2)c2ccccc2)CC1 [Example 71, 5-(Morpholin-4-yl)-2-(N'-n-propylureido)-N-[(1-diphenylmethylpiperidin-4-yl)methyl]-benzamide] | – | – | – | – | – | 7.05 | 81.1 | 73.5
